Source: patent US20240382435A1, “NON-CERULOPLASMIN BOUND COPPER LEVEL MONITORING” (ORPHALAN S.A., priority 2021, published 2024)

Experiments:
[1] = system: patients with Wilson's Disease; assay: Serum NCC by copper speciation assay, randomized open-label clinical study (Example 3); assay type: in vivo, human
Protocol: 1.95 mL of rhodium internal standard solution containing 1% TMAH/1% EDTA was combined with 50 μL of human serum in a 15 mL polypropylene tube, capped and rotary mixed for at least 30 minutes. The processed sample was then analysed by ICP-MS on an Agilent 7900x inductively coupled plasma mass spectrometer.
The samples were defrosted and equilibrated to room temperature prior to use, and vortex mixed for approximately 5 seconds. 80 μL of 50 mM Tris-HCl (pH 7.4) buffer solution was combined with 20 μL of the clinical sample, blank or reference standard in a 0.5 mL Eppendorf tube (protein low bind). The diluted sample (100 μL) was transferred to a 0.3 mL polypropylene LC vial and sealed with a screw cap. An aliquot (50 μL) of each processed sample was then analysed by LC-ICP-MS on an Agilent 8900x inductively coupled plasma mass spectrometer.
Speciation analysis of Cu-containing species in the serum samples was performed by an anion exchange high performance liquid chromatography (AE HPLC) column (GE Healthcare MonoQ 5/50 GL, stationary phase (10 μm; 5×50 mm)) with an ammonium acetate gradient (0-250 mM) for 20 min. A flow rate of 1.0 mL/min was used. The chromatographic separation was performed at 25° C. Detection of the eluting Cu species was achieved using a collision/reaction cell Agilent Technologies 8900x ICP-MS spectrometer. The isotopes 63Cu and 65Cu were monitored in time resolved mode analysis using an integration time of 0.3 sec. 63Cu is the most abundant isotope and therefore this isotope was used to quantify copper by LC-ICP-MS.
Efficacy was assessed and treatments were monitored primarily using total copper analysis and a copper speciation assay as outlined in Examples 1 and 2 to determine serum NCC levels.
Eligible patients were clinically stable with their standard of-care D penicillamine chelation therapy for at least 1 year. These patients entered a 12-Week Penicillamine Baseline Period (from study visits on Day 1 to Week 12). During this time, all patients continued their current D penicillamine regimen under study conditions. At the end of the Penicillamine Baseline Period, patients who fulfilled the protocol definition of being adequately controlled and tolerating D penicillamine were randomized in a 1:1 ratio to receive either TETA 4HCl or to continue to receive D penicillamine during a 24-Week Post-Randomization Period (from study visits Week 12 to Week 36).
The primary efficacy endpoint was the serum NCC concentration (in μg/L) at Week 36. Serum NCC concentrations were determined using a copper speciation serum NCC assay using the methodology outlined in Examples 1 and 2. The primary efficacy analysis utilized the serum NCC values from all study visits that were analyzed using a restricted maximum likelihood based general linear model for correlated data. The correlation due to repeated measures was modelled by specifying the variance covariance matrix.

[2] = system: patients with Wilson's Disease; assay: 24-hour urinary copper excretion (UCE), clinical study of Example 3; assay type: in vivo, human; conditions: ITT
Protocol: The number and the proportion of patients with a serum NCC value that matched the threshold (eg, serum NCC≤50 μg/L) were presented along with the 95% confidence interval of the proportion by visit and treatment arm. The proportions in the 2 arms were compared using Fisher's exact test. The same approach was applied on 24-hour UCE.

[3] = system: patients with Wilson's Disease; assay: Clinical Global Impression of Change (CGIC) rating scale, clinical study of Example 3; assay type: in vivo, human; conditions: 7-point scale, ITT
Source text: The CGIC rating scale, a 7-point ordinal score, was summarized by visit and treatment arm, and compared between arms using a stratified Cochran-Mantel-Haenszel test. The UWDRS, a continuous measure, was summarized by visit and treatment arm with descriptive statistics for absolute values and the changes from baseline.

[4] = system: patients with Wilson's Disease; assay: Baseline ALT, clinical study of Example 3; conditions: baseline (Penicillamine Baseline Period), by treatment arm
Source text: For change from baseline in laboratory measurements, “baseline” was defined as the last non-missing value during the Penicillamine Baseline Period, including unscheduled values.

[5] = Day 1, 12-Week Penicillamine Baseline Period (all patients on D-penicillamine), ITT population, by arm
[6] = Week 4, Penicillamine Baseline Period (all patients on D-penicillamine), ITT
[7] = Week 8, Penicillamine Baseline Period (all patients on D-penicillamine), ITT
[8] = Week 12 (randomization), end of Penicillamine Baseline Period, ITT
[9] = Week 16, Post-Randomization Period, ITT
[10] = Week 20, Post-Randomization Period, ITT
[11] = Week 24, Post-Randomization Period, ITT
[12] = Week 28, Post-Randomization Period, ITT
[13] = Week 32, Post-Randomization Period, ITT
[14] = Week 36, Post-Randomization Period, ITT
[15] = Day 1, 12-Week Penicillamine Baseline Period (all patients on D-penicillamine), by arm
[16] = Week 4, Penicillamine Baseline Period (all patients on D-penicillamine)
[17] = Week 12 (randomization), end of Penicillamine Baseline Period
[18] = Week 16, 24-Week Post-Baseline Period
[19] = Week 24, 24-Week Post-Baseline Period
[20] = Week 36, 24-Week Post-Baseline Period
[21] = Week 12, Penicillamine Baseline Period
[22] = Week 16, Post-Randomization Period
[23] = Week 24, Post-Randomization Period
[24] = Week 36, Post-Randomization Period

Cl.Cl.Cl.Cl.NCCNCCNCCN [TETA 4HCl, trientine tetrahydrochloride]
serum NCC value, mean [1, 5]: 60.7 µg/L | serum NCC value, median [1, 5]: 58.2 µg/L | serum NCC value, mean [1, 6]: 57.6 µg/L | serum NCC value, median [1, 6]: 58.5 µg/L | serum NCC value, mean [1, 7]: 70.0 µg/L | serum NCC value, median [1, 7]: 61.5 µg/L | serum NCC value, mean [1, 8]: 68.5 µg/L | serum NCC value, median [1, 8]: 61.1 µg/L | serum NCC value, mean ([1]; Week 16, 24-Week Post-Randomization Period, ITT): 78.0 µg/L | serum NCC change from baseline, mean [1, 9]: 9.4 µg/L | serum NCC change from baseline, median [1, 9]: 9.2 µg/L | serum NCC value, median [1, 9]: 69.6 µg/L | serum NCC change from baseline, mean [1, 10]: 8.2 µg/L | serum NCC change from baseline, median [1, 10]: 4.1 µg/L | serum NCC value, mean [1, 10]: 76.8 µg/L | serum NCC value, median [1, 10]: 60.8 µg/L | serum NCC change from baseline, mean [1, 11]: -0.4 µg/L | serum NCC change from baseline, median [1, 11]: 3.0 µg/L | serum NCC value, mean [1, 11]: 60.3 µg/L | serum NCC value, median [1, 11]: 57.0 µg/L | serum NCC change from baseline, mean [1, 12]: -0.8 µg/L | serum NCC change from baseline, median [1, 12]: 0.0 µg/L | serum NCC value, mean [1, 12]: 69.5 µg/L | serum NCC value, median [1, 12]: 62.4 µg/L | serum NCC change from baseline, mean [1, 13]: -4.6 µg/L | serum NCC change from baseline, median [1, 13]: 0.7 µg/L | serum NCC value, mean [1, 13]: 64.0 µg/L | serum NCC value, median [1, 13]: 60.0 µg/L | serum NCC value, mean ([1]; Week 36 (primary efficacy endpoint), Post-Randomization Period, ITT): 57.6 µg/L | serum NCC change from baseline, mean [1, 14]: -11.0 µg/L | serum NCC change from baseline, median [1, 14]: -6.9 µg/L | serum NCC value, median [1, 14]: 51.1 µg/L | serum NCC levels, comparison between arms ([1]; copper speciation assay, Table 4): very similar | 24-hour UCE value, mean [2, 15]: 550.8 μg/24 hours | 24-hour UCE value, median [2, 15]: 546.6 μg/24 hours | 24-hour UCE value, mean [2, 16]: 545.4 μg/24 hours | 24-hour UCE value, median [2, 16]: 436.1 μg/24 hours | 24-hour UCE value, mean [2, 17]: 535.1 μg/24 hours | 24-hour UCE value, median [2, 17]: 590.4 μg/24 hours | 24-hour UCE change from baseline, mean [2, 18]: −223 μg/24 hours | 24-hour UCE change from baseline, median [2, 18]: −221 μg/24 hours | 24-hour UCE value, mean [2, 18]: 316.4 μg/24 hours | 24-hour UCE value, median [2, 18]: 265.6 μg/24 hours | 24-hour UCE change from baseline, mean [2, 19]: −247 μg/24 hours | 24-hour UCE change from baseline, median [2, 19]: −199 μg/24 hours | 24-hour UCE value, mean [2, 19]: 295.7 μg/24 hours | 24-hour UCE value, median [2, 19]: 257.8 μg/24 hours | 24-hour UCE change from baseline, mean [2, 20]: −258 μg/24 hours | 24-hour UCE change from baseline, median [2, 20]: −231 μg/24 hours | 24-hour UCE value, mean [2, 20]: 289.4 μg/24 hours | 24-hour UCE value, median [2, 20]: 234.8 μg/24 hours | Clinical Global Impression of Change Scale, mean ([3]; Week 4, Penicillamine Baseline Period (all patients on D-penicillamine), 4 = no change): 4.0 | Clinical Global Impression of Change Scale, median [3, 16]: 4.0 | Clinical Global Impression of Change Scale, mean [3, 21]: 4.0 | Clinical Global Impression of Change Scale, median [3, 21]: 4.0 | Clinical Global Impression of Change Scale, mean [3, 22]: 4 | Clinical Global Impression of Change Scale, median [3, 22]: 4.0 | Clinical Global Impression of Change Scale, mean [3, 23]: 4.0 | Clinical Global Impression of Change Scale, median [3, 23]: 4.0 | Clinical Global Impression of Change Scale, mean [3, 24]: 3.9 | Clinical Global Impression of Change Scale, median [3, 24]: 4.0 | ALT, mean baseline [4]: 34.7 U/L
